Experimental data as given in US12617798B2, “Imidazopyrazne derivatives” (Hoffmann-La Roche Inc., priority 2020, dated 2026).
Counter-ions that a name gives are not always drawn.

Experiments:
[1] = system: Acinetobacter baumannii ATCC17961; experiment: Antimicrobial susceptibility testing, 90% growth inhibitory concentration (IC90) determination; format: cell-based; conditions: Iso-Sensitest broth, OD 600 nm over 16 h, 35±2° C., read-out: ATCC 17961 IC90
Description: (§1) 90% Growth Inhibitory Concentration (IC90) Determination The in vitro antimicrobial activity of the compounds was determined according to the following procedure: The assay used a 10-points Iso-Sensitest broth medium to measure quantitatively the in vitro activity of the compounds against Acinetobacter baumannii ATCC17961 and Pseudomonas aeruginosa ATCC27853. Stock compounds in DMSO were serially twofold diluted (e.g. range from 50 to 0.097 μM final concentration) in 384 wells microtiter plates and inoculated with 49 μl the bacterial suspension in Iso-Sensitest medium to have a final cell concentration of ˜5×10^(5) CFU/ml in a final volume/well of 50 ul/well. Microtiter plates were incubated at 35±2° C. Bacterial cell growth was determined with the measurement of optical density at λ=600 nm each 20 minutes over a time course of 16 h. Growth inhibition was calculated during the logarithmic growth of the bacterial cells with determination of the concentration inhibiting 50% (IC50) and 90% (IC90) of the growth. Table 1 provides the 90% growth inhibitory concentrations (IC90) in micromoles per liter of the compounds of present invention obtained against the strain Acinetobacter baumannii ATCC17961.

[2] = system: Pseudomonas aeruginosa ATCC27853; experiment: as above; format: cell-based; conditions: Iso-Sensitest broth, OD 600 nm over 16 h, 35±2° C., read-out: ATCC 27853 IC90
Description: as §1, with “Table 2” for “Table 1”, “strain Pseudomonas aeruginosa ATCC27853.” for “strain Acinetobacter baumannii ATCC17961.”

IC90 [1] [µM]	IC90 [2] [µM]	Compound
0.047	0.16	CCc1cc(Nc2nccn3c(-c4ccc(-c5c[nH]nc5C)c(F)c4F)cnc23)ccc1C(=O)NCC1CCN(CC2CNC2)CC1 [Example A1, N-[[1-(Azetidin-3-ylmethyl)-4-piperidyl]methyl]-4-[[3-[2,3-difluoro-4-(3-methyl-1H-pyrazol-4-yl)phenyl]imidazo[1,2-a]pyrazin-8-yl]amino]-2-ethyl-benzamide; formic acid]
0.05	0.098	CCc1cc(Nc2nccn3c(-c4ccc(-c5c[nH]nc5C)c(F)c4F)cnc23)ccc1C(=O)NCC1CC[N+](C)(CC2CNC2)CC1 (stereo not shown) [Example A2, N-[[1-(Azetidin-3-ylmethyl)-1-methyl-piperidin-1-ium-4-yl]methyl]-4-[[3-[2,3-difluoro-4-(3-methyl-1H-pyrazol-4-yl)phenyl]imidazo[1,2-a]pyrazin-8-yl]amino]-2-ethyl-benzamide; formic acid; formate]
0.34	1.8	CCc1cc(Nc2nccn3c(-c4ccc(-c5c[nH]nc5C)c(F)c4F)cnc23)ccc1C(=O)NCC1CCN(CC(=O)O)CC1 [Example A3, 2-[4-[[[4-[[3-[2,3-difluoro-4-(3-methyl-1H-pyrazol-4-yl)phenyl]imidazo[1,2-a]pyrazin-8-yl]amino]-2-ethyl-benzoyl]amino]methyl]-1-piperidyl]acetic acid]
0.31	1.2	CCc1cc(Nc2nccn3c(-c4ccc(-c5c[nH]nc5C)c(F)c4F)cnc23)ccc1C(=O)NCC1CC[N+](C)(CC(=O)O)CC1 (stereo not shown) [Example A4, 2-[4-[[[4-[[3-[2,3-difluoro-4-(3-methyl-1H-pyrazol-4-yl)phenyl]imidazo[1,2-a]pyrazin-8-yl]amino]-2-ethyl-benzoyl]amino]methyl]-1-methyl-piperidin-1-ium-1-yl]acetic acid; formate]
0.15	0.24	CCc1cc(Nc2nccn3c(-c4ccc(-c5c[nH]nc5C)c(F)c4F)cnc23)ccc1C(=O)NCC1CC[N+](CC(=O)O)(CC2CNC2)CC1 (stereo not shown) [Example A5, 2-[1-(azetidin-3-ylmethyl)-4-[[[4-[[3-[2,3-difluoro-4-(3-methyl-1H-pyrazol-4-yl)phenyl]imidazo[1,2-a]pyrazin-8-yl]amino]-2-ethyl-benzoyl]amino]methyl]piperidin-1-ium-1-yl]acetic acid; formic acid; formate]
0.28	0.43	CCc1cc(Nc2nccn3c(-c4ccc(-c5c[nH]nc5C(F)(F)F)c(F)c4F)cnc23)ccc1C(=O)NCC1CCN(CC2CNC2)CC1 [Example A12, N-[[1-(azetidin-3-ylmethyl)-4-piperidyl]methyl]-4-[[3-[2,3-difluoro-4-[3-(trifluoromethyl)-1H-pyrazol-4-yl]phenyl]imidazo[1,2-a]pyrazin-8-yl]amino]-2-ethyl-benzamide; formic acid]
1.1	0.12	CCc1cc(Nc2nccn3c(-c4ccc(-c5c[nH]nc5C)nc4F)cnc23)ccc1C(=O)NCC1CC[N+](C)(CC2CNC2)CC1 (stereo not shown) [Example B1, N-[[1-(Azetidin-3-ylmethyl)-1-methyl-piperidin-1-ium-4-yl]methyl]-2-ethyl-4-[[3-[2-fluoro-6-(3-methyl-1H-pyrazol-4-yl)-3-pyridyl]imidazo[1,2-a]pyrazin-8-yl]amino]benzamide; formic acid; formate]
0.43	0.098	CCc1cc(Nc2nccn3c(-c4ccc(-c5c(C)n[nH]c5C)nc4F)cnc23)ccc1C(=O)NCC1CC[N+](C)(CC2CNC2)CC1 (stereo not shown) [Example B4, N-[[1-(azetidin-3-ylmethyl)-1-methyl-piperidin-1-ium-4-yl]methyl]-4-[[3-[6-(3,5-dimethyl-1H-pyrazol-4-yl)-2-fluoro-3-pyridyl]imidazo[1,2-a]pyrazin-8-yl]amino]-2-ethyl-benzamide; formic acid; formate]
0.1	0.098	CCc1cc(Nc2nccn3c(-c4ccc(-c5c[nH]nc5C)cc4)cnc23)ccc1C(=O)NCC1CC[N+](C)(CC2CNC2)CC1 (stereo not shown) [Example B5, N-[[1-(azetidin-3-ylmethyl)-1-methyl-piperidin-1-ium-4-yl]methyl]-2-ethyl-4-[[3-[4-(3-methyl-1H-pyrazol-4-yl)phenyl]imidazo[1,2-a]pyrazin-8-yl]amino]benzamide; formic acid; formate]
0.16	0.25	CCc1cc(Nc2nccn3c(-c4ccc(-c5c[nH]nc5C(F)(F)F)c(F)c4F)cnc23)ccc1C(=O)NCC1CC[N+](C)(CC2CNC2)CC1 (stereo not shown) [Example B6, N-[[1-(azetidin-3-ylmethyl)-1-methyl-piperidin-1-ium-4-yl]methyl]-4-[[3-[2,3-difluoro-4-[3-(trifluoromethyl)-1H-pyrazol-4-yl]phenyl]imidazo[1,2-a]pyrazin-8-yl]amino]-2-ethyl-benzamide; formic acid; formate]
0.27	1	CCc1cc(Nc2nccn3c(-c4ccc(-c5cn(CCOC)nc5C)c(F)c4F)cnc23)ccc1C(=O)NCC1CC[N+](C)(C)CC1 [Example C1, 4-[[3-[2,3-Difluoro-4-[1-(2-methoxyethyl)-3-methyl-pyrazol-4-yl]phenyl]imidazo[1,2-a]pyrazin-8-yl]amino]-N-[(1,1-dimethylpiperidin-1-ium-4-yl)methyl]-2-ethyl-benzamide; formate]
0.29	1.2	CCc1cc(Nc2nccn3c(-c4ccc(-c5cn(CCOC)nc5C)c(F)c4F)cnc23)ccc1C(=O)NCC1CC[N+](C)(CC(N)=O)CC1 (stereo not shown) [Example C2, N-[[1-(2-amino-2-oxo-ethyl)-1-methyl - piperidin-1-ium-4-yl]methyl]-4-[[3-[2,3-difluoro-4-[1-(2-methoxyethyl)-3-methyl-pyrazol-4-yl]phenyl]imidazo[1,2-a]pyrazin-8-yl]amino]-2-ethyl-benzamide; formate]
0.43	1.6	CCc1cc(Nc2nccn3c(-c4ccc(-c5cn(CCOC)nc5C)c(F)c4F)cnc23)ccc1C(=O)NCC1CC[N+](C)(CCO)CC1 (stereo not shown) [Example C3, 4-[[3-[2,3-difluoro-4-[1-(2-methoxyethyl)-3-methyl-pyrazol-4-yl]phenyl]imidazo[1,2-a]pyrazin-8-yl]amino]-2-ethyl-N-[[1-(2-hydroxyethyl)-1-methyl-piperidin-1-ium-4-yl]methyl]benzamide; formate]
0.46	0.41	CCc1cc(Nc2nccn3c(-c4ccc(-c5cn(CCOC)nc5C)c(F)c4F)cnc23)ccc1C(=O)NCC1CC[N+](C)(CC2CNC2)CC1 (stereo not shown) [Example C4, N-[[1-(azetidin-3-ylmethyl)-1-methyl-piperidin-1-ium-4-yl]methyl]-4-[[3-[2,3-difluoro-4-[1-(2-methoxyethyl)-3-methyl-pyrazol-4-yl]phenyl]imidazo[1,2-a]pyrazin-8-yl]amino]-2-ethyl-benzamide; formic acid; formate]
0.68	1.9	CCc1cc(Nc2nccn3c(-c4ccc(-c5c(C)nn(CCOC)c5C)c(F)c4F)cnc23)ccc1C(=O)NCC1CC[N+](C)(CC(N)=O)CC1 (stereo not shown) [Example C5, N-[[1-(2-amino-2-oxo-ethyl)-1-methyl-piperidin-1-ium-4-yl]methyl]-4-[[3-[2,3-difluoro-4-[1-(2-methoxyethyl)-3,5-dimethyl-pyrazol-4-yl]phenyl]imidazo[1,2-a]pyrazin-8-yl]amino]-2-ethyl-benzamide; formate]
0.44	1.2	CCc1cc(Nc2nccn3c(-c4ccc(-c5c(C)nn(CCOC)c5C)c(F)c4F)cnc23)ccc1C(=O)NCC1CC[N+](C)(CCO)CC1 (stereo not shown) [Example C6, 4-[[3-[2,3-difluoro-4-[1-(2-methoxyethyl)-3,5-dimethyl-pyrazol-4-yl]phenyl]imidazo[1,2-a]pyrazin-8-yl]amino]-2-ethyl-N-[[1-(2-hydroxyethyl)-1-methyl-piperidin-1-ium-4-yl]methyl]benzamide; formate]
0.32	0.39	CCc1cc(Nc2nccn3c(-c4ccc(-c5c(C)nn(CCOC)c5C)c(F)c4F)cnc23)ccc1C(=O)NCC1CC[N+](C)(CC2CNC2)CC1 (stereo not shown) [Example C7, N-[[1-(azetidin-3-ylmethyl)-1-methyl-piperidin-1-ium-4-yl]methyl]-4-[[3-[2,3-difluoro-4-[1-(2-methoxyethyl)-3,5-dimethyl-pyrazol-4-yl]phenyl]imidazo[1,2-a]pyrazin-8-yl]amino]-2-ethyl-benzamide; formic acid; formate]
